Results as given in US20050192339A1, “Compounds” (priority 2003, published 2005).
pKd, pKi: −log10 of the molar value. Counter-ions that a name gives are not always drawn.

Columns and labels:
human MCH1R receptor [1] = biological target: T1, human MCH1R receptor (Homo sapiens, UniProt Q99705); assay: MCH1R receptor binding by SPA ([125I]-MCH displacement, CHO-K1 hMCH1R membranes); conditions: 0.2 nM [125I]-MCH, membranes of CHO-K1 cells expressing hMCH1 receptor, room temperature; Ki calculated from IC50 (Cheng-Prusoff)
T1 construct: host or cells: CHO-K1
T1 sequence (Q99705 whole entry): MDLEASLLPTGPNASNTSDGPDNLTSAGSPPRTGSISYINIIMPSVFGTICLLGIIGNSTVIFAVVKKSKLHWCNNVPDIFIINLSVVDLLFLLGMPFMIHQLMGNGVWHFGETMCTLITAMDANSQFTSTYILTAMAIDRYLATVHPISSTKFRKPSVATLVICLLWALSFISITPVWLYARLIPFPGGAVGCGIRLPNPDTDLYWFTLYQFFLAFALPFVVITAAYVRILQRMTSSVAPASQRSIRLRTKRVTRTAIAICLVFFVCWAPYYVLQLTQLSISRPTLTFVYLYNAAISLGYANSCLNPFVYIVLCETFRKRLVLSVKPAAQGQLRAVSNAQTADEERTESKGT
Description: The compounds according to the invention were evaluated for their binding to the human MCH1R receptor by the following method:
Compounds: MCH peptide was purchased from Phoenix pharmaceuticals. (Phe^13, [^125I]Tyr^19 Melanine-Concentrating Hormone (human, mouse, rat) ([^125I]-MCH) was obtained from NEN life Science Products. Inc. Boston, Mass. Wheat germ agglutinine SPA beads (RPNQ 0001) were obtained from Amersham-Pharmacia Biotech. All other reagents used are of highest purity from different resources available. Protein Kits, Micro BCA™ Protein Assay Reagent Kit (Cat No. 23235) were purchased from Piece, Rockford, Ill., USA.
CHO-K1 cells expressing hMCH1 receptor were purchased from Euroscreen. CHO-K1 hMCHRI (Euroscreen, Brussels, Belgium, # ES-370-C) were cultivated in Nutrient mixture Ham's F-12 with Glutamax I (Gibco-BRL #31765-027) supplemented with 10% heat-inactivated foetal calf serum (FCS, Gibco-BRL #10108-165) and 400 μg/ml geniticin (Gibco-BRL #1140-0359). The cells were sub-cultivated twice weekly with split ratio=1:20-1:30. For membrane preparation the cells were cultured in […] and the cells were harvested when 90% confluent.
When the cells reached more than 90% confluence, dishes (500 cm^2) were rinsed twice with 20 ml PBS (Ca^2+ and Mg^2+ free). Buffer A, which contains Tris.HCl (15), MgCl2.6H2O (2), EDTA (0.3), EGTA (1) in mM with pH 7.5, 25 ml was added and cells were suspended using a window scraper. The cells were collected in 50 ml Falcon tube pre-cooled on ice and then centrifuged for 3 minutes at 1500 g at 4° C. […]
The radio labeled [^125I]-MCH was diluted with cold MCH in ratio 1:3. […] The results were calculated using Excel program and the curves were drawn using a program GraphPad Prism.
For screening of the substances the amount of the beads used was 0.25 mg/well and the amount of the membrane protein was 4 μg/well 0.2 nM of labeled MCH was used. […] The samples were counted using Microbeta counter (Wallac Trilux 1450 Micro beta counter, Wallac, Finland) for 2 minutes and the results were calculated by using the computer program Activity Base. […]

human MCH1R receptor [2] = biological target: T1, human MCH1R receptor; conditions: from Hervieu et al., Eur J Neurosci 2000; read-out: Kd of MCH binding reported in literature; cited from earlier work

`COc1ccc([C@@]23CC[C@@H](NC(=S)NCc4ccccc4)C[C@@H]2N(CCCc2ccccc2)CC3)cc1OC` (relative stereo) [Example 23, N-benzyl-N′-[(3aS*,6R*,7aS*)-3a-(3,4-dimethoxyphenyl)-1-(3-phenylpropyl)octahydro-1H-indol-6-yl]thiourea] gave a pKi (human MCH1R receptor [1]) of 7.37.

In the case of `C=CCNC(=O)N[C@@H]1CC[C@@]2(c3ccc(OC)c(OC)c3)CCN(C)[C@H]2C1` (relative stereo) [Example 58, N-allyl-N′-[(3aS*,6R*7aS*)-3a-(3,4-dimethoxyphenyl)-1-methyloctahydro-1H-indol-6-yl]urea trifluoroacetate], the pKi (human MCH1R receptor [1]) was 6.04.

Compound `COc1ccc([C@@]23CC[C@@H](NC(=O)NCc4ccc(Br)cc4)C[C@@H]2N(C)CC3)cc1OC` (relative stereo) [Example 69, N-(4-bromobenzyl)-N′-[(3aS*,6R*,7aS*)-3a-(3,4-dimethoxyphenyl)-1-methyloctahydro-1H-indol-6-yl]urea trifluoroacetate] has a pKi (human MCH1R receptor [1]) of 6.64.

For [^125I]-MCH, the pKd (human MCH1R receptor [2]) is listed as 8.92.
